Data on two molecules can be found in PMC12362587, “Untargeted Diversity-Oriented Synthesis for the Discovery of New Antitumor Agents: An Integrated Approach of Inverse Virtual Screening, Bioinformatics, and Omics for Target Deconvolution” (Journal of Medicinal Chemistry, 2025).

A value given as a limit tells only on which side of the number the result lay.

For assay [1], the target named is T1, isocitrate dehydrogenase (IDH1 R132H) (Homo sapiens, UniProt O75874, R132H).
T1 construct: purchased BPS Bioscience
Nature of the assay: IDH1 enzyme assay (R132H; BPS Bioscience). Conditions: top concentration 30 μM. In kind it is biochemical. How it is done:
The assay was performed in a volume of 100 μL in a 96-well black plate. The IDH1 enzyme assay (R132H; BPS Bioscience, USA) was designed to measure IDH1 enzyme activity by measuring NADPH consumption. For activity measurement, the enzyme (final concentration, 2.5 ng per reaction), α-ketoglutarate (IDH1 substrate; final concentration, 4 mM), NADPH (final concentration, 500 μM), and compounds were incubated for 1 h at room temperature. The compounds were added at different concentrations in the reaction buffer, starting from a final concentration of 30 μM. Buffer with the same amount of DMSO (1%) was used as a negative control. After the incubation time, NADPH detection reagent was added for 5 min at room temperature. The fluorescence signals (excitation/emission, 544 nm/600 nm) were read using a PerkinElmer EnSpire multimode plate reader (PerkinElmer, Waltham, MA, USA). The experiments were performed in triplicate. The IC50 values were calculated using GraphPad Prism 8.0 software by nonlinear regression of dose–response inhibition.

The target of assay [2] is T2, G-protein coupled receptor 55 (Homo sapiens, UniProt Q9Y2T6).
T2 construct: Eurofins (contract assay)
Nature of the assay: Cell Based Antagonist Arrestin LeadHunter Assay. To be noted: Eurofins, read-out: EC50 or IC50, G-protein coupled receptor 55, antagonist mode. From the text: (§1) For displacement assays on G-protein coupled receptor 55 (GPR55), Vasopressin V2 receptor (V2R), Adenosine A1 receptor (A1AR), Fibroblast growth factor receptor 1 (FGFR1), Vascular endothelial growth factor receptor 2 (VEGFR2), Platelet-derived growth factor receptor beta (PDGFRB), Vascular endothelial growth factor receptor 1 (VEGFR1), Thromboxane Synthase (TXS) and Phosphodiesterase 10A (PDE10A), we commissioned the Eurofins company which employed its specific experimental methods, accessible at the link: https://www.eurofins.com/.

The next assay has as its target T3, rat TRPM8 (Rattus norvegicus, UniProt Q8R455).
T3 construct: expressed in transfected cells; host or cells: HEK-293
Nature of the assay: Ca2+-imaging assay with Fluo-4 AM. Conditions: inhibition of icilin 0.25 μM, HEK-293 cells overexpressing rat TRPM8, Fluo-4 AM; read-out: EC50 or IC50, transient receptor potential M8. It counts as cell-based. How it is done: (§2) HEK-293 cells, stably overexpressing recombinant rat TRPM8 or rat TRPA1, were cultured as monolayers in 100 mm Petri dishes using Minimum Essential Media supplemented with 2 mM glutamine, 1% nonessential amino acids, 10% FBS, and maintained at 37 °C under 5% CO2. On the day of the experiment, both nontransfected and transfected HEK-293 cells were loaded for 1 h at room temperature in the dark with the calcium-sensitive fluorescent probe Fluo-4 AM (4 μM, dissolved in dimethyl sulfoxide with 0.02% Pluronic F-127). After loading, cells were washed twice with Tyrode’s solution (145 mM NaCl, 2.5 mM KCl, 1.5 mM CaCl2, 1.2 mM MgCl2, 10 mM D-glucose, 10 mM HEPES, pH 7.4) and transferred to a quartz cuvette (approximately 100,000 cells) in a spectrofluorometer (PerkinElmer LS50B; λEX = 488 nm, λEM = 516 nm) under continuous stirring. Fluorescence was recorded before and after the addition of various concentrations of test compounds. The observed effects were normalized to the response elicited by ionomycin (4 μM). Baseline fluorescence values from nontransfected HEK-293 cells were subtracted from the measurements obtained in transfected cells. The potency of the test compounds was expressed as the concentration required to elicit a half-maximal agonist effect (EC50), measured as half-maximal increases in intracellular calcium concentration ([Ca^2+]-i). The efficacy of TRPA1 agonists was reported as a percentage of the maximal effect induced by allyl isothiocyanate (AITC, 100 μM). Antagonistic or desensitizing effects were assessed by preincubating cells with the test compounds in the quartz cuvette for 5 min before stimulating them with the specific TRP agonist (AITC, 100 μM for TRPA1, or icilin, 0.25 μM for TRPM8). IC50 values were determined as the concentration required to produce a half-maximal inhibition of the agonist effect, with the agonist-induced [Ca^2+]-i response set at 100%. Measurements of [Ca^2+]-i in TRPM8-expressing cells were conducted at 22 °C using a Fluorescence Peltier System (PTP-1, PerkinElmer). All experiments were performed in triplicate or greater. Curve fitting (sigmoidal concentration–response with variable slope) and parameter estimation were conducted using GraphPad Prism 10 (GraphPad Software Inc., San Diego, CA).

The next assay addresses T4, rat TRPA1 (Rattus norvegicus, UniProt Q6RI86).
T4 construct: expressed in transfected cells; host or cells: HEK-293
Put plainly: Ca2+-imaging assay with Fluo-4 AM. It counts as cell-based. To be noted: agonist effect, HEK-293 cells overexpressing rat TRPA1, Fluo-4 AM; read-out: EC50 or IC50, transient receptor potential A1. As to the method: as §2

The target in a further assay is T5, BRD4(BD1) (Homo sapiens, UniProt O60885).
T5 construct: purchased BPS Bioscience (printed as 'BSP') 32514
Nature of the assay: BRD4 (BD1) Inhibitor Screening Assay Kit (AlphaScreen). It counts as binding. To be noted: read-out: EC50 or IC50, bromodomain-containing protein 4. (In Alpha technology, singlet oxygen from a donor bead excites a nearby acceptor bead.)

A further assay addresses T6, A1 Human Adenosine GPCR (Homo sapiens, UniProt P30542).
T6 construct: Eurofins (contract assay)
T6 sequence (P30542 1-326): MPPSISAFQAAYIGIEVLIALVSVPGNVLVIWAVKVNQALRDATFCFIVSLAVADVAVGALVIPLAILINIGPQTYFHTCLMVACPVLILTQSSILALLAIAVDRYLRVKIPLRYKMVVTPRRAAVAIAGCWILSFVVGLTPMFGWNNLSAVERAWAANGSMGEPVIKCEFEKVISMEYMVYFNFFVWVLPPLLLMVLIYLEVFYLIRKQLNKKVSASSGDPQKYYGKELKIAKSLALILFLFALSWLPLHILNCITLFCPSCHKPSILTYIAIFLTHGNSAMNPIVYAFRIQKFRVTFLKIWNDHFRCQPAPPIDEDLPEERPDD
Put plainly: Binding Agonist Radioligand LeadHunter Assay. To be noted: Eurofins, read-out: EC50 or IC50, A1 Human Adenosine GPCR, agonist radioligand.
From the text: as §1

The target in assay [3] is T7, V2 Human Vasopressin/Oxytocin GPCR (Homo sapiens, UniProt P30518).
T7 construct: Eurofins (contract assay)
Put plainly: Binding Agonist Radioligand LeadHunter Assay. To be noted: Eurofins, read-out: EC50 or IC50, V2 Human Vasopressin/Oxytocin GPCR.
From the text: as §1

T7 sequence (P30518 whole entry): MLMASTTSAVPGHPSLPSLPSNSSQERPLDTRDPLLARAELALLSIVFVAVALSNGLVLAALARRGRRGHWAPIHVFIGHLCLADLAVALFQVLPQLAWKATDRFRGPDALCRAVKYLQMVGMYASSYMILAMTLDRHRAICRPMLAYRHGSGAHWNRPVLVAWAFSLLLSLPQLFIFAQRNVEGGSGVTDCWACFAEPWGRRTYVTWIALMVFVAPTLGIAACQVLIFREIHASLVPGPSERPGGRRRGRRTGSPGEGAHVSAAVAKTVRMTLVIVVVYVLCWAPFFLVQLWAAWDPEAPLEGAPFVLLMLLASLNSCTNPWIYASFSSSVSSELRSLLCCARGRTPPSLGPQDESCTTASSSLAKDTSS
T4 sequence (Q6RI86 whole entry): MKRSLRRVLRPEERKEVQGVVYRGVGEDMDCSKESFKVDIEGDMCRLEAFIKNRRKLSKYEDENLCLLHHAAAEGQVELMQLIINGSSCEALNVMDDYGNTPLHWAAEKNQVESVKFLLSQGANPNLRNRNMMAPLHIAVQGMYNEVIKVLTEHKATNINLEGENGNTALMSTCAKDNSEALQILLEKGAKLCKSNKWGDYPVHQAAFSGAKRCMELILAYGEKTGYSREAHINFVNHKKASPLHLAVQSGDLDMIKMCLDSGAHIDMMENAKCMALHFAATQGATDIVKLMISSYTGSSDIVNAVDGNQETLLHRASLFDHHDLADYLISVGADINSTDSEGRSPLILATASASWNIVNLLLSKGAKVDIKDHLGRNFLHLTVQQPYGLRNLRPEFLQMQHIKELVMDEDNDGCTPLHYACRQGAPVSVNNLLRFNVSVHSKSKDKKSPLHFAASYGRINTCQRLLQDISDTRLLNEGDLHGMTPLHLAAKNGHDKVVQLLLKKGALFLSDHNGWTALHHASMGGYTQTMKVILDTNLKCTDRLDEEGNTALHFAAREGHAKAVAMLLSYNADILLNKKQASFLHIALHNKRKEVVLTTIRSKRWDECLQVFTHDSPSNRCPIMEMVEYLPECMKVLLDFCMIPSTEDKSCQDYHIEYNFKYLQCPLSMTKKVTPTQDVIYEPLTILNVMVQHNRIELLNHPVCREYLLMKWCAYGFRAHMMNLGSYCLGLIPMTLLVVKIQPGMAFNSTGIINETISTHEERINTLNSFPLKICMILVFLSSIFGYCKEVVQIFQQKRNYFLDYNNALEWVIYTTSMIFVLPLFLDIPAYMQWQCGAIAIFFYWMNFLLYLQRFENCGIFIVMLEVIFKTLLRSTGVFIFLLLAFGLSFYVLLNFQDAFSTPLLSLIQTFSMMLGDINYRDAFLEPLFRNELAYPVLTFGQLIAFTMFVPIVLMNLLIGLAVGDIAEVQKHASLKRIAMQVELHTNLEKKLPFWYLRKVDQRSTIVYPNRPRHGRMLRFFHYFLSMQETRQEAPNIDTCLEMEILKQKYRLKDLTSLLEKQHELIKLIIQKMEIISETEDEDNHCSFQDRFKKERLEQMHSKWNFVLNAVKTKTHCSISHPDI
T1 sequence (O75874 whole entry R132H): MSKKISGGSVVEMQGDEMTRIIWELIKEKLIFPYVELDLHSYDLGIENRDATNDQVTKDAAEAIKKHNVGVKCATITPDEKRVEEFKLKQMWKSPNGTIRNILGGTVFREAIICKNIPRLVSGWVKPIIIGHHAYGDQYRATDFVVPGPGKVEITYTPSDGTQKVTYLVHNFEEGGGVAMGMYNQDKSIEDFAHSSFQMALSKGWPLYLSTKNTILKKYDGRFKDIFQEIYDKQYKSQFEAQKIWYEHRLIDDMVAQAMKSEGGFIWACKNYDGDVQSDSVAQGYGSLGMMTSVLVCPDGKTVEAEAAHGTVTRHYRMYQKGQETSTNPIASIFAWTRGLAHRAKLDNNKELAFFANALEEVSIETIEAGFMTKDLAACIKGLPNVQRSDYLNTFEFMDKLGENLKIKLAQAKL
T2 sequence (Q9Y2T6 whole entry): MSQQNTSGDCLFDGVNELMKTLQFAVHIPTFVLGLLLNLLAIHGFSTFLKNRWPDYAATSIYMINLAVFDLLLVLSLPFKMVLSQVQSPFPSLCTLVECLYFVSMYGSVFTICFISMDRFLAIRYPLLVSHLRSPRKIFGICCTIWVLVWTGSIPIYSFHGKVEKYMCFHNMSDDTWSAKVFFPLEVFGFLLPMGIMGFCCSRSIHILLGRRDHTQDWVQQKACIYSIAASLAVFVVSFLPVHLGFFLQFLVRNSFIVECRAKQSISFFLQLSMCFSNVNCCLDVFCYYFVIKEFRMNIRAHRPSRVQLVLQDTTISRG
T3 sequence (Q8R455 whole entry): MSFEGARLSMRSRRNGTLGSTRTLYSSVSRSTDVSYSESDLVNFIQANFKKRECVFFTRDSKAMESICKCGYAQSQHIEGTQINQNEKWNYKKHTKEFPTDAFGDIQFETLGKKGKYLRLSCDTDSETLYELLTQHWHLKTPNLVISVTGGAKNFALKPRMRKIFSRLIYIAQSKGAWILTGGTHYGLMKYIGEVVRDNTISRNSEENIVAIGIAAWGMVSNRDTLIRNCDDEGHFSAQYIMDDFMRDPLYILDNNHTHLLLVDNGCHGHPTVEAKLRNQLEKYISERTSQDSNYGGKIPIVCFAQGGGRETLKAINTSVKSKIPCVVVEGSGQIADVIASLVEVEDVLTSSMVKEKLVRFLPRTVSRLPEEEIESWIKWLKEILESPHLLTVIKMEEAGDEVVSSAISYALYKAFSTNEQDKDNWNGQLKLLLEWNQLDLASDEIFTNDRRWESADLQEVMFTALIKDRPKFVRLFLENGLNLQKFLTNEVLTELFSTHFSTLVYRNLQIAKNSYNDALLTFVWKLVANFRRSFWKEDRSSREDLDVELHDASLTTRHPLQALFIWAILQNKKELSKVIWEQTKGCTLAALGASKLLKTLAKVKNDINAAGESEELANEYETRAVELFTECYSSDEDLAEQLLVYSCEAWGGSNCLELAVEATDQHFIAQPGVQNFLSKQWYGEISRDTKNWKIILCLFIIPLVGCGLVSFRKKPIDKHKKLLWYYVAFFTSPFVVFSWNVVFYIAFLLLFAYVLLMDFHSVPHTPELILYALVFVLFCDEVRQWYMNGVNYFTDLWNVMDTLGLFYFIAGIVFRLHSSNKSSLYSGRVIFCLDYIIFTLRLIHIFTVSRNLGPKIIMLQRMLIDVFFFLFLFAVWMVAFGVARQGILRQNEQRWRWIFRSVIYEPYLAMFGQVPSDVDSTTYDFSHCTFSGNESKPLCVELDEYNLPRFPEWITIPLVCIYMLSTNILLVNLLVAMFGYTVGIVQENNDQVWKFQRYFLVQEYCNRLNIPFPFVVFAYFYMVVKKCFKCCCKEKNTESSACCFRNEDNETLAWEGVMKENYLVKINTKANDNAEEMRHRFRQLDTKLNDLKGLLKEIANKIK
Experimental for BRD4(BD1): Compounds were first tested in triplicate at a concentration of 10 μM, using (+)-JQ1 as reference compound.
After that, 10 μL of acceptor and donor beads (250-fold diluted) were added, protecting them from light. The results were measured 60 min later using the Enspire microplate analyzer (PerkinElmer, California, USA). Each compound was tested in triplicate, and GraphPad Prism (version 8.0) was used to analyze the data, employing the equation log­(inhibitor) vs normalized response-variable slope

The term EC50 denotes the concentration at which the effect is half-maximal. Turning to `CC(C)C[C@H]1C(=O)N(Cc2ccc(C(F)(F)F)cc2)c2ccccc2C(=O)N1Cc1ccc(C(F)(F)F)cc1` [Compound 31, (S)-3-Isobutyl-1,4-bis(4-(trifluoromethyl)benzyl)-3,4-dihydro-1H-benzo[e][1,4]diazepine-2,5-dione], the IC50 in assay [1] (read-out: EC50 or IC50, isocitrate dehydrogenase) is 14900 ± 2120 nM; in assay [2], not below 30000 nM; on rat TRPM8, more than 30000 nM; at BRD4(BD1) it was 1190 ± 290 nM; at A1 Human Adenosine GPCR, not below 30000 nM; in assay [3], not below 30000 nM. The EC50 at rat TRPA1 amounted to 200 ± 90 nM.

Turning to `CC(C)C[C@@H](C(=O)OCc1ccccc1)N1Cc2ccccc2NC1=O` [Compound 63, Benzyl (S)-4-Methyl-2-(2-oxo-1,4-dihydroquinazolin-3(2H)-yl)pentanoate], the “EC50 or IC50, isocitrate dehydrogenase” value in assay [1] is given as “not soluble”. The IC50 in assay [2] is not below 30000 nM; at rat TRPM8 it was 360 ± 80 nM; at BRD4(BD1), 110 ± 90 nM; on A1 Human Adenosine GPCR it was not below 30000 nM; in assay [3] it was not below 30000 nM. Besides, the EC50 at rat TRPA1 was 2540 ± 1200 nM.
